# According to BindingDB's records for patent US20250179055 (Innovstone Therapeutics, 2025):
# pIC50: −log10 of the molar value.
# Biological target: Apolipoprotein(a) (Homo sapiens, UniProt P08519)
# Assay: Methods of ELISA Assay on Screening Lp(a) Assembly Inhibition
# Description: 1) Added 100 μL of capture antibody to each well of a pre-coated ELISA plate and incubated overnight at 25° C.2) Added 300 μL of washing solution to each well and washed 5 times for 1 min each time.3) Added 100 μL of blocking solution to each well and incubated at 25° C. for 2 h.4) Added 300 μL of washing solution to each well and washed 5 times for 1 min each time.5) Added 100 μL of sample to each well and incubated at 25° C. for 1 h.6) Added 300 μL of washing solution to each well and washed 5 times for 1 min each time.7) Added 100 μL of detection antibody to each well and incubated at 25° C. for 1 h.8) Added 300 μL of washing solution to each well and washed 5 times for 1 min each time.9) Added 100 μL substrate solution (Color Reagent A: Color Reagent B, 1:1) to each well and incubated for 20 min at 25° C. in the dark.10) Added […] of stop solution to each well, gently blowed and sucked several times with the pipette tip, and read within 5 min.
# Chain of Apolipoprotein(a) (P08519 whole entry): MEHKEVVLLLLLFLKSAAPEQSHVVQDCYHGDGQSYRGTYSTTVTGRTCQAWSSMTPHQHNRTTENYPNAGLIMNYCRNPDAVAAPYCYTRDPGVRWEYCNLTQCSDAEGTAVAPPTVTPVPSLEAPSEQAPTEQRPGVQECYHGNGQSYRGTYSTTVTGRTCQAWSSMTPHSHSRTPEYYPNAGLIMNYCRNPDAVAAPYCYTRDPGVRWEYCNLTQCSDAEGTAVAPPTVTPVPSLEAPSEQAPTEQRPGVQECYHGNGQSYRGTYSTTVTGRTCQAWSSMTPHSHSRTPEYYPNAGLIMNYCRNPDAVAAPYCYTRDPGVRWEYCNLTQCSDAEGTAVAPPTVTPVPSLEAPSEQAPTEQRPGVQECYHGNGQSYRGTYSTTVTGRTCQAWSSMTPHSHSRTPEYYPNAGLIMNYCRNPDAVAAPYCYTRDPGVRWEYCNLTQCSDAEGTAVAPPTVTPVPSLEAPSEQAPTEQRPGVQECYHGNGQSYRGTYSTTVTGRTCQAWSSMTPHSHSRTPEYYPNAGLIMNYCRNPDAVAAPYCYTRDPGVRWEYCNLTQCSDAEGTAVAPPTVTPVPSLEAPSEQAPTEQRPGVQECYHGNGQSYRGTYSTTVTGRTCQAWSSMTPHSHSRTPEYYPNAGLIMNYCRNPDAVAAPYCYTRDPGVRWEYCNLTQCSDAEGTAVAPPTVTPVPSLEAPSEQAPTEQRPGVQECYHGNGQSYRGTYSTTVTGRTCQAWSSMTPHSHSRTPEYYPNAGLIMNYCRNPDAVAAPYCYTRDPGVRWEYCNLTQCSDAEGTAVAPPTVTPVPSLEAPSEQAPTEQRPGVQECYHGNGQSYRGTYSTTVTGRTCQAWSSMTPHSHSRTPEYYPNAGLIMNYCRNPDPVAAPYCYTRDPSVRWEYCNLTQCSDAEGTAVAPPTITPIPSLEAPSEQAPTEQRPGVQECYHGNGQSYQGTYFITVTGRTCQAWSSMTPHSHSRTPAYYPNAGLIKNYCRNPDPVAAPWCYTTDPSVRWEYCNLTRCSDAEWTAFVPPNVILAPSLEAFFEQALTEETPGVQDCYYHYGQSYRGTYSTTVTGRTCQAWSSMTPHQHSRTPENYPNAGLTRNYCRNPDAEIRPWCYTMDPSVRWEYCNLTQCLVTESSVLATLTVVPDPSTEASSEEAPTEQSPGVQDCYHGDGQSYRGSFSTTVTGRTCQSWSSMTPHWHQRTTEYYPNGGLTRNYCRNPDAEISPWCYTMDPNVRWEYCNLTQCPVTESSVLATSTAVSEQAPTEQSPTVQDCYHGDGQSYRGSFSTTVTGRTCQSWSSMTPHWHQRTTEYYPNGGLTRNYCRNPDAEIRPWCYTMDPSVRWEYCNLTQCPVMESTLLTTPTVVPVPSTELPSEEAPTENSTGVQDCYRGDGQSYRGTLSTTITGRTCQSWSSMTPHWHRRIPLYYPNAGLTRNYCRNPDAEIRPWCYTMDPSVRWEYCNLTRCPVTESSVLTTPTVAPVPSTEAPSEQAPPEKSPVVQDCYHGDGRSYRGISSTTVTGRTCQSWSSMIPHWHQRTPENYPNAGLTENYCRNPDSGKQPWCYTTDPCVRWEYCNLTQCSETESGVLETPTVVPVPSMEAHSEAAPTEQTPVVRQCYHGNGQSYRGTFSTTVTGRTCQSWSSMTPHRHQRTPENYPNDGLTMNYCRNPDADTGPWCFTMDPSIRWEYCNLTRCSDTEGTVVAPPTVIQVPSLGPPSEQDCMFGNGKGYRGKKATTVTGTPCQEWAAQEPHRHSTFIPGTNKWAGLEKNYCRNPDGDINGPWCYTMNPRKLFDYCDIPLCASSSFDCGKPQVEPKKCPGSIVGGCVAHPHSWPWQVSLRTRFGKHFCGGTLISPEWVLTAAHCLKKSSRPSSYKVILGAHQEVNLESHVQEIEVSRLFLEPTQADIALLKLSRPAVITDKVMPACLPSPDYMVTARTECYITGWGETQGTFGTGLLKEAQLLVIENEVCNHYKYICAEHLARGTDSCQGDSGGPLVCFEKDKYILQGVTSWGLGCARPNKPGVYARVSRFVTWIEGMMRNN
compound,measurement,value
"O=C(O)[C@@H](Cc1cc2cc(CN(Cc3ccc4oc(C[C@H](C(=O)O)[C@H]5CCNC5)cc4c3)Cc3ccc4oc(C[C@H](C(=O)O)[C@H]5CCNC5)cc4c3)ccc2o1)[C@H]1CCNC1 [US20250179055, Compound 127]",pIC50,9.05
